Test results taken from patent US9453008B2, “Antithrombotic and antiatherosclerotic agent and method for producing same (variants)” (PROTON OOO, priority 2011, dated 2016).
Marks after values point to notes of the source that are not given here.

Tests used:
rat hemostasis = assay: Model of parenchymal hemorrhage (bleeding time) after oral administration; assay type: in vivo
Description: The model of parenchymal hemorrhage characterizes hemostasis through the stimulation of coagulation cascade. Usually, it is rather difficult to obtain considerable change of bleeding time in these models with resorptive-acting compounds. Direct-action anticoagulants (heparin, heparinoids) prolong bleeding time in these models only in high doses, while the effect is detected at different time (up to 3 hours after the administration). Indirect-action […] drugs (oxycoumarines, indandiones, etc.) usually begin to increase bleeding after a certain delay period (12-48 hours after the administration), which is easily explainable by the modern understanding of their mechanism of action: they stop the biosynthesis of blood clotting plasma factors II, VII, IX, X, while the duration of delay period is determined by the amount of these factors, produced in the liver before the administration of vitamin K reductase inhibitors (oxycoumarines, indandiones).
The duration of parenchymal hemorrhage in the control group was 88.9±1.2 s. Test groups of animals used in the experiments 60 minutes after oral administration of the compound of formula I. After the administration of 8 mg/kg dose the duration of parenchymal hemorrhage in test group increased by 71% compared to original condition, it further increased to 220.6±3.4 s after another hour.

[1] = molecular target: T1, soluble guanylate cyclase of human platelets (Homo sapiens, UniProt Q02108+Q02153); assay: Specific activity of soluble guanylate cyclase of human platelets; assay type: biochemical; design: Activation: unit: % of initial activity
T1 construct: soluble guanylate cyclase of human platelets; from tissue; host or cells: human platelets
T1 sequence (Q02153 1-619): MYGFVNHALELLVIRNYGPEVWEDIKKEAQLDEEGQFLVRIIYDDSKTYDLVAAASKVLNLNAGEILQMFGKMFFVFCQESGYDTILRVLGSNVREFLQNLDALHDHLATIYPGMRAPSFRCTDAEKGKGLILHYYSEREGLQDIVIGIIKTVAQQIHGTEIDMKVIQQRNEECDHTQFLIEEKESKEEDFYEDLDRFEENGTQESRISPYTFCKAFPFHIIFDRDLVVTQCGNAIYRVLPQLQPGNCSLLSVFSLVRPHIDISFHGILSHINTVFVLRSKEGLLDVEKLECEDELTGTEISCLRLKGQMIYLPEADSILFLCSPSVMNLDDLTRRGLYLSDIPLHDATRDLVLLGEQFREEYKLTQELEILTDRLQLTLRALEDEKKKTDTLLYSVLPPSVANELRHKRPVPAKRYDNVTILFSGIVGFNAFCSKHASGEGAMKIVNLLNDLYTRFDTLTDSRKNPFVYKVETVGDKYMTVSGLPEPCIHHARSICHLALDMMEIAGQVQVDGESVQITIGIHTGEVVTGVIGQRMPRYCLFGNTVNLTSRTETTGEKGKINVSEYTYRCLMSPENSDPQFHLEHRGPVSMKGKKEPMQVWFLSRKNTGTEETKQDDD
T1 sequence (Q02108 1-690): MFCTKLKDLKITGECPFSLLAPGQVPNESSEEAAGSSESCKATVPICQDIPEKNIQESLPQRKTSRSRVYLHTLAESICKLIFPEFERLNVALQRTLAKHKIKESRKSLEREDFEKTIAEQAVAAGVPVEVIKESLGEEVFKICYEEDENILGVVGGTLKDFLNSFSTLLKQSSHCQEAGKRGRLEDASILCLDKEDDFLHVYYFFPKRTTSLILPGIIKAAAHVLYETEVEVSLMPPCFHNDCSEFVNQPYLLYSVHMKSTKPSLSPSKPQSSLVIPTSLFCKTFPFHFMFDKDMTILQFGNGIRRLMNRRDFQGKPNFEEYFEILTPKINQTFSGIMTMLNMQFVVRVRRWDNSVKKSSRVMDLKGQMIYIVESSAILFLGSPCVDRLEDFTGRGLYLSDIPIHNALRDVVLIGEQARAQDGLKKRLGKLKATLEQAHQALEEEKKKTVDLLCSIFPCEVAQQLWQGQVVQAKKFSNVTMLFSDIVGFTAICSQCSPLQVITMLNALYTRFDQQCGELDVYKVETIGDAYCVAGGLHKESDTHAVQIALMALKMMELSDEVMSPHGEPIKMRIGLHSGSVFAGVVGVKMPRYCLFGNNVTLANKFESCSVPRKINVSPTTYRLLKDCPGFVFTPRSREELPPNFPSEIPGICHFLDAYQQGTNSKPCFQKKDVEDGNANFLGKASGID

mice = assay: Acute toxicity (LD50); assay type: in vivo; settings: mice, internal administration
Excerpt: (§1) Acute toxicity of the compound in mice in internal administration is 8.9±0.75 g/kg, cumulation after 28 days administration is weak (lethality less than 50%).

Acute toxicity (LD50) = assay type: in vivo; settings: mouse, in vivo, other: internal administration
Excerpt: as §1

non-narcotized SHT rats = assay: Blood pressure in non-narcotized SHT rats, intragastric administration (non-invasive BP measurement); assay type: in vivo, rat
Description: In experiments on non-narcotized SHT rats intragastric administration of the compound of formula I has caused dose-dependent reduction of BP, the duration of which was increased correspondingly with dose increase (maximal duration of effect 5 hours after single administration of 50 mg/kg dose, Table 3).

[2] = Cumulation after 28 days administration; assay type: in vivo
Excerpt: as §1

## CN1CC(CO)O/C1=C(C#N)/C=C1/Nc2ccccc2C1=O (centres unmarked) [Compound I, 2-[2-Cyano-2-[5-(hydroxymethyl)-3-methyl-1,3-oxazolidin-2-ylidene]ethylidene]indolin-3-one]
Rat hemostasis; 8 mg/kg oral, 60 minutes after administration
  Increase of duration of parenchymal hemorrhage compared to original condition: 71%
Rat hemostasis; 8 mg/kg oral, after another hour (control 88.9±1.2 s)
  Duration of parenchymal hemorrhage: 220.6 ± 3.4 s
Rat hemostasis; 8 mg/kg oral, end of experiment (240 min)
  Duration of parenchymal hemorrhage vs control: did not differ from the control group
Rat hemostasis; 16 mg/kg oral, first 60 min of the observation
  Duration of bleeding: increased twofold
Rat hemostasis; rat, in vivo
  Effect on rat hemostasis in the model of parenchymal hemorrhage: statistically significantly slows down rat hemostasis
[1]
  Activation of soluble guanylate cyclase (in words): approaches that of L-arginine
[1]; 0.1 mM concentration
  average degree of activation of the enzyme: 2.12 times
[1]; 0.1 mmol, mean of 5 samples
  Activation, Mean M ± m: 212 ± 67
[1]; 0.1 mmol, mean of 5 samples (initial 174 ± 33)
  Specific activity of GC, Mean M ± m: 342 ± 86 pmol cGMP/min/mg protein
[1]; 0.1 mmol, sample number 1
  Activation: 446
[1]; 0.1 mmol, sample number 1 (initial 133)
  Specific activity of GC: 593 pmol cGMP/min/mg protein
[1]; 0.1 mmol, sample number 2
  Activation: 153
[1]; 0.1 mmol, sample number 2 (initial 235)
  Specific activity of GC: 450 pmol cGMP/min/mg protein
[1]; 0.1 mmol, sample number 3
  Activation: 146
[1]; 0.1 mmol, sample number 3 (initial 100)
  Specific activity of GC: 146 pmol cGMP/min/mg protein
[1]; 0.1 mmol, sample number 4
  Activation: 189
[1]; 0.1 mmol, sample number 4 (initial 140)
  Specific activity of GC: 265 pmol cGMP/min/mg protein
[1]; 0.1 mmol, sample number 5
  Activation: 122
[1]; 0.1 mmol, sample number 5 (initial 211)
  Specific activity of GC: 256 pmol cGMP/min/mg protein
mice
  Acute toxicity: 8.9 ± 0.75 g/kg
Acute toxicity (LD50)
  LD50: 8900 mg/kg
non-narcotized SHT rats; 1 mg/kg orally, time column 1 (hours), 1 h after dosing
  Reduction of BP, mmHg: 20* mmHg
non-narcotized SHT rats; 1 mg/kg orally, time column 2, 2 h after dosing
  Reduction of BP, mmHg: 10 mmHg
non-narcotized SHT rats; 1 mg/kg orally, time column 3, 0 - absence of effect, 3 h after dosing
  Reduction of BP, mmHg: 0 mmHg
non-narcotized SHT rats; 1 mg/kg orally, time column 4, 0 - absence of effect, 4 h after dosing
  Reduction of BP, mmHg: 0 mmHg
non-narcotized SHT rats; 1 mg/kg orally, time column 5, 0 - absence of effect, 5 h after dosing
  Reduction of BP, mmHg: 0 mmHg
non-narcotized SHT rats; 1 mg/kg orally, time column 6, 0 - absence of effect, 6 h after dosing
  Reduction of BP, mmHg: 0 mmHg
non-narcotized SHT rats; 5 mg/kg orally, time column 1, 1 h after dosing
  Reduction of BP, mmHg: 17* mmHg
non-narcotized SHT rats; 5 mg/kg orally, time column 2, 2 h after dosing
  Reduction of BP, mmHg: 20* mmHg
non-narcotized SHT rats; 5 mg/kg orally, time column 3, 3 h after dosing
  Reduction of BP, mmHg: 32* mmHg
non-narcotized SHT rats; 5 mg/kg orally, time column 4, 4 h after dosing
  Reduction of BP, mmHg: 30* mmHg
non-narcotized SHT rats; 5 mg/kg orally, time column 5, 5 h after dosing
  Reduction of BP, mmHg: 15 mmHg
non-narcotized SHT rats; 5 mg/kg orally, time column 6, 0 - absence of effect, 6 h after dosing
  Reduction of BP, mmHg: 0 mmHg
non-narcotized SHT rats; 10 mg/kg orally, time column 1, 0 - absence of effect, 1 h after dosing
  Reduction of BP, mmHg: 23* mmHg
non-narcotized SHT rats; 10 mg/kg orally, time column 2, 0 - absence of effect, 2 h after dosing
  Reduction of BP, mmHg: 30* mmHg
non-narcotized SHT rats; 10 mg/kg orally, time column 3, 0 - absence of effect, 3 h after dosing
  Reduction of BP, mmHg: 37 mmHg
non-narcotized SHT rats; 10 mg/kg orally, time column 4, 0 - absence of effect, 4 h after dosing
  Reduction of BP, mmHg: 35 mmHg
non-narcotized SHT rats; 10 mg/kg orally, time column 5, 0 - absence of effect, 5 h after dosing
  Reduction of BP, mmHg: 17* mmHg
non-narcotized SHT rats; 10 mg/kg orally, time column 6, 0 - absence of effect, 6 h after dosing
  Reduction of BP, mmHg: 0 mmHg
non-narcotized SHT rats; 25 mg/kg orally, time column 1, 1 h after dosing
  Reduction of BP, mmHg: 26* mmHg
non-narcotized SHT rats; 25 mg/kg orally, time column 2, 2 h after dosing
  Reduction of BP, mmHg: 32* mmHg
non-narcotized SHT rats; 25 mg/kg orally, time column 3, 3 h after dosing
  Reduction of BP, mmHg: 45* mmHg
non-narcotized SHT rats; 25 mg/kg orally, time column 4, 4 h after dosing
  Reduction of BP, mmHg: 45* mmHg
non-narcotized SHT rats; 25 mg/kg orally, time column 5, 5 h after dosing
  Reduction of BP, mmHg: 25* mmHg
non-narcotized SHT rats; 25 mg/kg orally, time column 6, 0 - absence of effect, 6 h after dosing
  Reduction of BP, mmHg: 0 mmHg
non-narcotized SHT rats; 50 mg/kg orally, time column 1, 1 h after dosing
  Reduction of BP, mmHg: 25* mmHg
non-narcotized SHT rats; 50 mg/kg orally, time column 2, 2 h after dosing
  Reduction of BP, mmHg: 42* mmHg
non-narcotized SHT rats; 50 mg/kg orally, time column 3, 3 h after dosing
  Reduction of BP, mmHg: 50* mmHg
non-narcotized SHT rats; 50 mg/kg orally, time column 4, 4 h after dosing
  Reduction of BP, mmHg: 50* mmHg
non-narcotized SHT rats; 50 mg/kg orally, time column 5, 5 h after dosing
  Reduction of BP, mmHg: 25* mmHg
non-narcotized SHT rats; 50 mg/kg orally, time column 6, 0 - absence of effect, 6 h after dosing
  Reduction of BP, mmHg: 0 mmHg
non-narcotized SHT rats; single intragastric administration of 50 mg/kg dose
  Maximal duration of BP-reducing effect: 5 h
[2]
  Lethality: less than 50%
